Read-outs that look alike come from different tables or passages of the source.

For this assay, the target named is T1, Trp-p8 (Homo sapiens, UniProt Q7Z2W7, T58I).
T1 construct: expressed in transfected cells; host or cells: CHO (Chinese Hamster Ovary) cells
The assay can be described thus: ATP viability assay with CHO/Trp-p8 cells at 37° C. The format is cell-based. The note with it: CHO/Trp-p8 cells, 24-26 hours at 37° C., 50% reduction in relative cell viability, read-out: EC50. The source says:
Human Trp-p8 transfected CHO cells (referred to herein as CHO/Trp-p8) were generated for use in experiments of the present invention. Expression of Trp-p8 polypeptide in this transfectant and the absence of any endogenous expression in the non-transfected CHO was confirmed by western blot and immunofluorescence using a Trp-p8 specific antibody (GS2.20) as well as the calcium flux assay with Icilin (1-[2-hydroxyphenyl]-4-[3-nitrophenyl]-1,2,3,6-tetrahydropyrimidine-2-one) and menthol (2-isopropyl-5-methyl-cyclohexanol). Non-transfected CHO cells were used to establish the specificity of the effects of the compounds observed with CHO/Trp-p8.
This Example discloses an ATP viability assay suitable for screening for effective Trp-p8 agonists. The ATP viability assay described herein employs CHO cells expressing an exogenous Trp-p8 cDNA. This example further establishes that Trp-p8 agonists of the present invention are effective in decreasing the viability of Trp-p8 expressing cells.
The concentration of intracellular ATP declines very rapidly when metabolically active cells undergo necrosis and/or apoptosis. The ATP concentration and consequently the relative cell viability can be measured by established methods using commercially available reagents. In the agonist screening methodology disclosed herein, a compound that specifically decreases the viability of CHO/Trp-p8 cells is referred to as an agonist.
As a primary screen for efficacy and specificity for agonists, both the non-transfected CHO and CHO/Trp-p8 cells were exposed to 1 or 10 μM of test compounds in 1% dimethylsulfoxide (DMSO) or 1% DMSO (control) in a 96-well black walled, black-bottomed, cell-culture treated plate. DMSO was the solvent for all of the compounds tested. After 24-26 hours at 37° C., the cells were lysed and ATP concentration determined via a chemiluminescence assay using a commercially available reagent kit—Cell Titer-Glo (Promega; Madison, Wis.). […] (EC50 is defined herein as the agonist concentration at which there is a 50% reduction in relative cell viability).

T1 sequence (Q7Z2W7 whole entry T58I): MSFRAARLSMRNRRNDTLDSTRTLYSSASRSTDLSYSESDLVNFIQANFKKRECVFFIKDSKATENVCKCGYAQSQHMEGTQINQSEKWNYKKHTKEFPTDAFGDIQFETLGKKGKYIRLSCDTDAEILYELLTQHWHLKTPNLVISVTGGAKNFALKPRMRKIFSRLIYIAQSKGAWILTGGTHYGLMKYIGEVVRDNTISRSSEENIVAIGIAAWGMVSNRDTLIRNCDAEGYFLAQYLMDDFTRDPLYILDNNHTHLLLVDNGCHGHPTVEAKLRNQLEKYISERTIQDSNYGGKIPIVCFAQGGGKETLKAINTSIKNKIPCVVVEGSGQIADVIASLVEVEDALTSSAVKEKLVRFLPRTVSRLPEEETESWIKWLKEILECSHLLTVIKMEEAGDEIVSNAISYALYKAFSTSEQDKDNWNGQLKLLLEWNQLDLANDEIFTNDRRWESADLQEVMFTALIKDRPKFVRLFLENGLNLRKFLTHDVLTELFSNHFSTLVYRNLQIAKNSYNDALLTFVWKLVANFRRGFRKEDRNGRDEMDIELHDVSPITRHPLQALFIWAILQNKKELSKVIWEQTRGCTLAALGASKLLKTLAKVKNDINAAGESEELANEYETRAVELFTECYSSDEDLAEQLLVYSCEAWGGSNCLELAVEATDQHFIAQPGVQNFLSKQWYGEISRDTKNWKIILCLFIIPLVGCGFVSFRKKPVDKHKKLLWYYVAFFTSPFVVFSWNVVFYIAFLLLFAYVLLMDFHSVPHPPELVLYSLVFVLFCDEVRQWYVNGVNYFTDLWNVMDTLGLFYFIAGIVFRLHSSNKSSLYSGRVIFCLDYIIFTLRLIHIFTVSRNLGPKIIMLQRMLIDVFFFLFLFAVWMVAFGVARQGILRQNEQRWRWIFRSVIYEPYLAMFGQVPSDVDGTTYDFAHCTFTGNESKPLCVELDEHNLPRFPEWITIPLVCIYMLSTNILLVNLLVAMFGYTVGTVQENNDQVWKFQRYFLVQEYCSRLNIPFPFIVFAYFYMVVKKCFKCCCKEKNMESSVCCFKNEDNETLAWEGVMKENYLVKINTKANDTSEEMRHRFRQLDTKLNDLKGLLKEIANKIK

`CCOc1ccc2c(c1)n(CCN)c(=O)n2C(=O)[C@@H]1C[C@H](C)CC[C@H]1C(C)C` (stereo in doubt) [Compound 38, 3-(2-Aminoethyl)-5-ethoxy-1-(2-isopropyl-5-methylcyclohexanecarbonyl)-1,3-dihydro-benzoimidazol-2-one]: where the note is “Table 5, Formula I-E”, the EC50 (usually the concentration at which the effect is half-maximal) is less than 20 nM.

In the case of `CC(C)[C@@H]1CC[C@@H](C)C[C@H]1C(=O)NCC(NCCN)c1ccccc1` (some centres unmarked) [Compound 32], under “Table 3, Formula I-C”, the EC50 is 51 to 100 nM.

For `CCN(CC)CCNC(=O)c1ccc2c(c1)n(CCN)c(=O)n2C(=O)[C@@H]1C[C@H](C)CC[C@H]1C(C)C` [Compound 44, 3-(2-Amino-ethyl)-1-(2-isopropyl-5-methylcyclohexanecarbonyl)-2-oxo-2,3-dihydro-1H-benzoimidazole-5-carboxylic acid (2-diethylamino-ethyl)amide], where the note is “Table 5, Formula I-E”, the EC50 is less than 20 nM.

`COc1ccc(NC(=O)[C@@H]2C[C@H](C)CC[C@H]2C(C)C)c(C(=O)NCCN)c1` [Compound 5]: the EC50 (Table 1, Formula I-A) is less than 20 nM.

For `CC[C@@H](N)C(=O)Nc1cc(OC)ccc1NC(=O)[C@@H]1C[C@H](C)CC[C@H]1C(C)C` [Compound 6], the EC50 (Table 1, Formula I-A) fell in the range of 21 to 50 nM.

For `COc1ccc(NC(=O)[C@@H]2C[C@H](C)CC[C@H]2C(C)C)c(NC(=O)[C@H](N)CO)c1` [Compound 7], for the setting “Table 1, Formula I-A”, the EC50 lay in the range of 21 to 50 nM.

Take `COc1ccc2c(c1)n(CCN)c(=O)n2C(=O)[C@@H]1C[C@H](C)CC[C@H]1C(C)C` [Compound 36, 3-(2-Aminoethyl)-1-(2-isopropyl-5-methylcyclohexanecarbonyl)-5-methoxy-1,3-dihydro-benzoimidazol-2-one]: the EC50 (Table 5, Formula I-E) was less than 20 nM.

Regarding `CC(C)[C@@H]1CC[C@@H](C)C[C@H]1C(=O)NCC(OCCCN)c1ccccc1` (some centres unmarked) [Compound 31, 2-Isopropyl-5-methyl-cyclohexanecarboxylic[2-(3-amino-4-propoxy)-2-phenyl-ethyl]-amide], the EC50 (Table 3, Formula I-C) lay in the range of 21 to 50 nM.

As to `CC(C)[C@@H]1CC[C@@H](C)C[C@H]1C(=O)Nc1cc(-c2ccc(N)cc2)nn1CCN` [Compound 19], the EC50 (Table 2, Formula I-B) lay within 21 to 50 nM.

Take `CC(C)[C@@H]1CC[C@@H](C)C[C@H]1C(=O)n1c(=O)n(CCN)c2cc(C(=O)Nc3ccccc3)ccc21` [Compound 59]: the EC50 (Table 5, Formula I-E) is 21 to 50 nM.

As for `CC(C)[C@@H]1CC[C@@H](C)C[C@H]1C(=O)n1c(=O)n(C[C@@H](C)N)c2ccccc21` [Compound 45, 1-(2-Amino-2-(R)-methylethyl)-3-(2-isopropyl-5-methylcyclohexanecarbonyl)-1,3-dihydro-benzoimidazol-2-one], the EC50 (Table 5, Formula I-E) was less than 20 nM.

Regarding `CC(C)[C@@H]1CC[C@@H](C)C[C@H]1C(=O)n1c(=O)n(CCN)c2cc(C(=O)NCC(N)=O)ccc21` [Compound 73], the EC50 (Table 5, Formula I-E) lay in the range of 51 to 100 nM.

Regarding `CC(C)[C@@H]1CC[C@@H](C)C[C@H]1C(=O)n1c(=O)n(CCN)c2cnccc21` [Compound 54], the EC50 (Table 5, Formula I-E) lay in the range of 21 to 50 nM.

With `CC(C)[C@@H]1CC[C@@H](C)C[C@H]1C(=O)n1c(=O)n(CCN)c2cc3ccccc3cc21` [Compound 51], the EC50 (Table 5, Formula I-E) was less than 20 nM.

On to `CC(C)[C@@H]1CC[C@@H](C)C[C@H]1C(=O)NCC(OCCN)c1ccccc1` (some centres unmarked) [Compound 30, 2-Isopropyl-5-methyl-cyclohexanecarboxylic[2-(2-amino-4-ethoxy)-2-phenyl-ethyl]-amide], for which the EC50 (Table 3, Formula I-C) is less than 20 nM.

Regarding `COC(=O)c1ccc(-c2cc(NC(=O)[C@@H]3C[C@H](C)CC[C@H]3C(C)C)n(CCN)n2)cc1` [Compound 25], the EC50 (Table 2, Formula I-B) lay in the range of 51 to 100 nM.

Turning to `CC(C)[C@@H]1CC[C@@H](C)C[C@H]1C(=O)n1c(=O)n(CCN)c2cc(C(=O)N[C@@H](CO)[C@@H](O)c3ccccc3)ccc21` [Compound 72], the EC50 (Table 5, Formula I-E) fell in the range of 51 to 100 nM.

In the case of `CSc1ccc(NC(=O)[C@@H]2C[C@H](C)CC[C@H]2C(C)C)c(C(=O)NCCN)c1` [Compound 2], for the setting “Table 1, Formula I-A”, the EC50 is less than 20 nM.

For the molecule `CC(C)[C@@H]1CC[C@@H](C)C[C@H]1C(=O)Nc1cc(-c2ccco2)nn1CCN` [Compound 14, 2-Isopropyl-5-methyl-cyclohexane carboxylic acid-[2-(2-amino-ethyl)-5-furan-2-yl-2H-pyrazol-3-yl]-amide], the EC50 (Table 2, Formula I-B) is less than 20 nM.

Take `CC(C)[C@@H]1CC[C@@H](C)C[C@H]1C(=O)Nc1cc(-c2cccn2C)nn1CCN` [Compound 17, 2-Isopropyl-5-methyl-cyclohexane carboxylic acid-[2-(2-amino-ethyl)-5-(1-methyl-1H-pyrrol-2-yl)-2H-pyrazol-3-yl]-amide]: under “Table 2, Formula I-B”, the EC50 is less than 20 nM.

With `CC(C)[C@@H]1CC[C@@H](C)C[C@H]1C(=O)Nc1cc(-c2ccc(O)cc2)nn1CCN` [Compound 20], the EC50 (Table 2, Formula I-B) is 21 to 50 nM.

`CC(C)[C@@H]1CC[C@@H](C)C[C@H]1C(=O)n1c(=O)n(CCN)c2ncccc21` [Compound 57]: the EC50 (Table 5, Formula I-E) was in the range of 21 to 50 nM.

For `CC(C)[C@@H]1CC[C@@H](C)C[C@H]1C(=O)Nc1cc2ccccc2cc1NCCN` [Compound 8], the EC50 (Table 1, Formula I-A) was in the range of 21 to 50 nM.

For `CC(C)[C@@H]1CC[C@@H](C)C[C@H]1C(=O)n1c(=O)n(CCN)c2cc(C(=O)N3CCOCC3)ccc21` [Compound 64], under “Table 5, Formula I-E”, the EC50 fell in the range of 21 to 50 nM.

With `COc1cccc(-c2cc(NC(=O)[C@@H]3C[C@H](C)CC[C@H]3C(C)C)n(CCN)n2)c1` [Compound 24], the EC50 (Table 2, Formula I-B) was in the range of 21 to 50 nM.

Consider `COc1ccc(NC(=O)[C@@H]2C[C@H](C)CC[C@H]2C(C)C)c(NC(=O)[C@@H](N)CO)c1` [Compound 10], for which the EC50 (Table 1, Formula I-A) lay within 21 to 50 nM.

Regarding `CC(C)[C@@H]1CC[C@@H](C)C[C@H]1C(=O)Nc1cc(-c2ccccc2)nn1C[C@@H](C)N` [Compound 15], the EC50 (Table 2, Formula I-B) is less than 20 nM.

Turning to `CC(C)[C@@H]1CC[C@@H](C)C[C@H]1C(=O)Nc1ccccc1NC(=O)CN` [Compound 11], under “Table 1, Formula I-A”, the EC50 was in the range of 51 to 100 nM.

`CCN(CC)C(=O)c1ccc2c(c1)n(CCN)c(=O)n2C(=O)[C@@H]1C[C@H](C)CC[C@H]1C(C)C` [Compound 70]: the EC50 (Table 5, Formula I-E) lay within 51 to 100 nM.

For the molecule `CC(C)[C@@H]1CC[C@@H](C)C[C@H]1C(=O)NCC(NC(=O)[C@@H](C)N)c1ccccc1` (stereo in doubt) [Compound 28, 2-Isopropyl-5-methyl-cyclohexanecarboxylic acid [2-(2-amino-propionylamino)-2-phenyl-ethyl]-amide], where the note is “Table 3, Formula I-C”, the EC50 is less than 20 nM.

`CCN(CC)CCNC(=O)c1cccc2c1n(CCN)c(=O)n2C(=O)[C@@H]1C[C@H](C)CC[C@H]1C(C)C` [Compound 55]: the EC50 (Table 5, Formula I-E) fell in the range of 21 to 50 nM.

With `CC(C)[C@@H]1CC[C@@H](C)C[C@H]1C(=O)Nc1cc(-c2cccc(O)c2)nn1CCN` [Compound 27], the EC50 (Table 2, Formula I-B) lay in the range of 51 to 100 nM.

With `COc1ccc(NC(=O)[C@@H]2C[C@H](C)CC[C@H]2C(C)C)c(NC(=O)[C@H](N)[C@H](C)O)c1` [Compound 12], the EC50 (Table 1, Formula I-A) is 51 to 100 nM.

Turning to `CCNC(=O)c1ccc2c(c1)n(CCN)c(=O)n2C(=O)[C@@H]1C[C@H](C)CC[C@H]1C(C)C` (stereo in doubt) [Compound 47, 3-(2-Amino-ethyl)-1-(2-isopropyl-5-methylcyclohexanecarbonyl)-2-oxo-2,3-dihydro-1H-benzoimidazole-5-carboxylic acid ethyl amide], the concentration giving a half-maximal response (EC50) (Table 5, Formula I-E) is less than 20 nM.

In the case of `CC(C)[C@@H]1CC[C@@H](C)C[C@H]1C(=O)Nc1ccccc1C(=O)NCCN` [Compound 9], the EC50 (Table 1, Formula I-A) was 21 to 50 nM.

`CSc1ccc(NC(=O)[C@@H]2C[C@H](C)CC[C@H]2C(C)C)c(NCCN)c1` [Compound 4, 2-Isopropyl-5-methyl-cyclohexanecarboxylic acid [2-(2-amino-ethylamino)-4-methylsulfanyl-phenyl]amide]: the EC50 (Table 1, Formula I-A) is less than 20 nM.

On to `CC(C)[C@@H]1CC[C@@H](C)C[C@H]1C(=O)n1c(=O)n(CCN)c2cc([S+](C)[O-])ccc21` (some centres unmarked) [Compound 43, 3-(2-Amino-ethyl)-1-(2-isopropyl-5-methyl-cyclohexanecarbonyl)-5-methylsulfinyl-1,3-dihydro-benzoimidazol-2-one], for which, where the note is “Table 5, Formula I-E”, the concentration giving a half-maximal response (EC50) was less than 20 nM.

With `CC(C)[C@@H]1CC[C@@H](C)C[C@H]1C(=O)n1c(=O)n(CCN)c2cc(OCC(=O)c3ccccc3)ccc21` [Compound 65], the EC50 (Table 5, Formula I-E) was in the range of 21 to 50 nM.

Consider `CC(C)[C@@H]1CC[C@@H](C)C[C@H]1C(=O)n1c(=O)n(CCN)c2ccncc21` [Compound 62], for which the EC50 (Table 5, Formula I-E) was 21 to 50 nM.

`CC(C)[C@@H]1CC[C@@H](C)C[C@H]1C(=O)NCCc1ccccc1CN` [Compound 34]: the EC50 (Table 4, Formula I-D) is less than 20 nM.

For the molecule `CC(C)[C@@H]1CC[C@@H](C)C[C@H]1C(=O)n1c(=O)n(CCN)c2cc(C(=O)NC(CO)CO)ccc21` [Compound 74], the EC50 (Table 5, Formula I-E) fell in the range of 51 to 100 nM.
